Experimental data taken from patent US12012410B2, “Substituted pyrazolo[1,5-a]pyrazines for spinal muscular atrophy” (REBORNA BIOSCIENCES, INC., priority 2018, dated 2024).

These compounds were tested on FL-SMN mRNA (SMN transcript containing exons 7 and 8) (assay: Live-cell assay to measure changes in FL-SMN mRNA levels (qPCR) after exposure to the compounds). Settings: fibroblasts derived from patients SMA (GM03813); 24 hours incubation.
Format: cell-based, human
Summary of the method: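 SMA patient fibroblasts (GM03813) in DMEM/10% FBS were treated with compound (0.1% DMSO final) for 24 h. FL-SMN and Δ7 mRNA were measured by RT-qPCR against oligo DNA standard curves and normalised to GAPDH. Values are % of the DMSO control, binned by asterisk from ≥100% to ≥180%.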

Row | SMILES | Percentage of increase (FL-SMN mRNA standardized against GAPDH, DMSO control set as 100%)
1 | CCc1cn2cc(-c3ccc4nc(C5CCN(C)CC5)[nH]c(=O)c4c3)ccc2n1 [Example 68, 6-(2-ethylimidazo[1,2-a]pyridin-6-yl)-2-(1-methylpiperidin-4-yl)quinazolin-4(3H)-one] | * (equal to or higher than 100% but lower than 120%)
2 | Cc1cn2cc(-c3ccc4nc(C5CCN(C)CC5)n(C)c(=O)c4c3)ccc2n1 [Example 69, 3-methyl-6-(2-methylimidazo[1,2-a]pyridin-6-yl)-2-(1-methylpiperidin-4-yl)quinazolin-4(3H)-one] | ** (equal to or higher than 120% but lower than 150%)
3 | Cc1cn2cc(-c3ccc4c(c3)c(=O)nc(C3CCN(C)CC3)n4C)ccc2n1 [Example 70, 1-methyl-6-(2-methylimidazo[1,2-a]pyridin-6-yl)-2-(1-methylpiperidin-4-yl)quinazolin-4(1H)-one] | * (equal to or higher than 100% but lower than 120%)
4 | Cc1nc2c(C)cc(-c3ccc4nc(C5CCN(C)CC5)[nH]c(=O)c4c3)cc2o1 [Example 71, 6-(2,4-dimethyl-1,3-benzoxazol-6-yl)-2-(1-methylpiperidin-4-yl)quinazolin-4(3H)-one] | * (equal to or higher than 100% but lower than 120%)
5 | Cc1nc2cc(-c3ccc4nc(C5CCN(C)CC5)[nH]c(=O)c4c3)ccc2o1 [Example 72, 6-(2-methyl-1,3-benzoxazol-5-yl)-2-(1-methylpiperidin-4-yl)quinazolin-4(3H)-one] | * (equal to or higher than 100% but lower than 120%)
6 | Cc1cn2cc(-c3ccc4nc(C5CCN(CC(F)(F)F)CC5)[nH]c(=O)c4c3)ccc2n1 [Example 73, 6-(2-methylimidazo[1,2-a]pyridin-6-yl)-2-[1-(2,2,2-trifluoroethyl)piperidin-4-yl]quinazolin-4(3H)-one] | * (equal to or higher than 100% but lower than 120%)
7 | Cc1cn2cc(-c3ccc4nc(C5CCN(C6CC6)CC5)[nH]c(=O)c4c3)ccc2n1 [Example 74, 2-(1-cyclopropylpiperidin-4-yl)-6-(2-methylimidazo[1,2-a]pyridin-6-yl)quinazolin-4(3H)-one] | ** (equal to or higher than 120% but lower than 150%)
8 | Cc1cn2cc(-c3ccc4nc(C5CCN(C)CC5)[nH]c(=O)c4c3)cc(C(F)(F)F)c2n1 [Example 75, 2-(1-methylpiperidin-4-yl)-6-[2-methyl-8-(trifluoromethyl)imidazo [1,2-a]pyridin-6-yl]quinazolin-4(3H)-one] | ** (equal to or higher than 120% but lower than 150%)
9 | COc1cnc(-c2nc3ccc(N4CCN(C)CC4)cc3c(=O)[nH]2)cc1C [Example 76, 2-(5-methoxy-4-methylpyridin-2-yl)-6-(4-methylpiperazin-1-yl)quinazolin-4(3H)-one] | * (equal to or higher than 100% but lower than 120%)
10 | CN1CCC(c2nc3ccc(-c4ccc(-c5cnn(C)c5)cc4)cc3c(=O)[nH]2)CC1 [Example 77, 2-(1-methylpiperidin-4-yl)-6-[4-(1-methyl-1H-pyrazol-4-yl)phenyl]quinazolin-4(3H)-one] | * (equal to or higher than 100% but lower than 120%)
11 | Cc1cn2nc(-c3nc4ccc(N5CCN(C)CC5=O)cc4c(=O)[nH]3)cc2c(C)n1 [Example 78, 2-(4,6-dimethylpyrazolo[1,5-a]pyrazin-2-yl)-6-(4-methyl-2-oxopiperazin-1-yl)quinazolin-4(3H)-one] | * (equal to or higher than 100% but lower than 120%)
12 | Cc1cn2nc(-c3nc4ccc(N5CCOCC5)cc4c(=O)[nH]3)cc2c(C)n1 [Example 79, 2-(4,6-dimethylpyrazolo[1,5-a]pyrazin-2-yl)-6-(morpholin-4-yl)quinazolin-4(3H)-one] | * (equal to or higher than 100% but lower than 120%)
13 | Cc1cn2ccc(-c3ccc4ncn(C5CCN(C)CC5)c(=O)c4c3)cc2n1 [Example 80, 6-(2-methylimidazo[1,2-a]pyridin-7-yl)-3-(1-methylpiperidin-4-yl)quinazolin-4(3H)-one] | * (equal to or higher than 100% but lower than 120%)
14 | Cc1cn2cc(-c3ccc4nc(C5CCOCC5)[nH]c(=O)c4c3)ccc2n1 [Example 81, 6-(2-methylimidazo[1,2-a]pyridin-6-yl)-2-(tetrahydro-2H4-pyran-4-yl)quinazolin-4(3H)-one] | * (equal to or higher than 100% but lower than 120%)
15 | COCCN1CCN(c2ccc3nc(-c4cc5c(C)nc(C)cn5n4)[nH]c(=O)c3c2)CC1 [Example 82, 2-(4,6-dimethylpyrazolo[1,5-a]pyrazin-2-yl)-6-[4-(2-methoxyethyl)piperazin-1-yl]quinazolin-4(3H)-one] | ** (equal to or higher than 120% but lower than 150%)
16 | Cc1nc2ccc(-c3ccc4nc(C5CCN(C6CC6)CC5)[nH]c(=O)c4c3)cc2o1 [Example 83, 2-(1-cyclopropylpiperidin-4-yl)-6-(2-methyl-1,3-benzoxazol-6-yl)quinazolin-4(3H)-one] | ** (equal to or higher than 120% but lower than 150%)
17 | Cc1cn2cc(-c3ccc4nc(C5(C)CCN(C)CC5)[nH]c(=O)c4c3)ccc2n1 [Example 84, 2-(1,4-dimethylpiperidin-4-yl)-6-(2-methylimidazo[1,2-a]pyridin-6-yl)quinazolin-4(3H)-one] | * (equal to or higher than 100% but lower than 120%)
18 | Cc1cn2cc(-c3ccc4nc(C5(F)CCN(C6CC6)CC5)[nH]c(=O)c4c3)cc(F)c2n1 [Example 85, 2-(4-fluoro-1-cyclopropylpiperidin-4-yl)-6-(8-fluoro-2-methylimidazo[1,2-a]pyridin-6-yl)quinazolin-4(3H)-one] | **** (equal to or higher than 180%)
19 | Cc1cn2cc(-c3ccc4nc(C5(F)CCN(C)CC5)[nH]c(=O)c4c3)cc(F)c2n1 [Example 86, 2-(4-fluoro-1-methylpiperidin-4-yl)-6-(8-fluoro-2-methylimidazo[1,2-a]pyridin-6-yl)quinazolin-4(3H)-one] | *** (equal to or higher than 150% but lower than 180%)
20 | COc1ccc(-c2cc(F)c3nc(C4CCN(C)CC4)[nH]c(=O)c3c2)cc1F [Example 87, 8-fluoro-6-(3-fluoro-4-methoxyphenyl)-2-(1-methylpiperidin-4-yl)quinazolin-4(3H7)-one] | **** (equal to or higher than 180%)
21 | Cc1cn2cc(-c3cc(C)c4nc(C5(F)CCN(C)CC5)[nH]c(=O)c4c3)cc(F)c2n1 [Example 89, 6-(8-fluoro-2-methylimidazo[1,2-a]pyridin-6-yl)-2-(4-fluoro-1-methylpiperidin-4-yl)-8-methylquinazolin-4(3H4)-one] | **** (equal to or higher than 180%)
22 | CCN1CCC(F)(c2nc3c(C)cc(-c4cc(F)c5nc(C)cn5c4)cc3c(=O)[nH]2)CC1 [Example 90, 2-(1-ethyl-4-fluoropiperidin-4-yl)-6-(8-fluoro-2-methylimidazo[1,2-a]pyridin-6-yl)-8-methylquinazolin-4(3H4)-one] | **** (equal to or higher than 180%)
23 | Cc1cn2cc(-c3ccc4nc(C5(F)CCN(C(C)C)CC5)[nH]c(=O)c4c3)cc(F)c2n1 [Example 91, 2-(4-fluoro-1-isopropylpiperidin-4-yl)-6-(8-fluoro-2-methylimidazo[1,2-a]pyridin-6-yl)quinazolin-4(3H)-one] | **** (equal to or higher than 180%)
24 | CCN1CCC(F)(c2nc3ccc(-c4cc(F)c5nc(C)cn5c4)cc3c(=O)[nH]2)CC1 [Example 92, 2-(1-Ethyl-4-fluoropiperidin-4-yl)-6-(8-fluoro-2-methylimidazo[1,2-a]pyridin-6-yl)quinazolin-4(3H)-one] | **** (equal to or higher than 180%)
25 | Cc1cn2cc(-c3ccc4nc(C5(F)CCN(CC(F)F)CC5)[nH]c(=O)c4c3)cc(F)c2n1 [Example 93, 2-[1-(2,2-difluoroethyl)-4-fluoropiperidin-4-yl]-6-(8-fluoro-2-methylimidazo[1,2-a]pyridin-6-yl)quinazolin-4(3H)-one] | *** (equal to or higher than 150% but lower than 180%)
26 | Cc1cn2cc(-c3cc(F)c4nc(C5(F)CCN(C)CC5)[nH]c(=O)c4c3)ccc2n1 [Example 94, 8-fluoro-2-(4-fluoro-1-methylpiperidin-4-yl)-6-(2-methylimidazo[1,2-a]pyridin-6-yl)quinazolin-4(3H)-one] | *** (equal to or higher than 150% but lower than 180%)
27 | CCN1CCC(F)(c2nc3c(F)cc(-c4ccc5nc(C)cn5c4)cc3c(=O)[nH]2)CC1 [Example 95, 2-(1-ethyl-4-fluoropiperidin-4-yl)-8-fluoro-6-(2-methylimidazo[1,2-a]pyridin-6-yl)quinazolin-4(3H)-one] | *** (equal to or higher than 150% but lower than 180%)
28 | Cc1cn2cc(-c3cc(F)c4nc(C5(F)CCN(C(C)C)CC5)[nH]c(=O)c4c3)ccc2n1 [Example 96, 8-fluoro-2-(4-fluoro-1-isopropylpiperidin-4-yl)-6-(2-methylimidazo[1,2-a]pyridin-6-yl)quinazolin-4(3H)-one] | *** (equal to or higher than 150% but lower than 180%)
